The text below walks through data of PubChem BioAssay AID330 (DTP/NCI, 2004).

For this assay, the system named is P388 leukemia ip, CD2F1 mice, survival T/C. Put plainly: NCI In Vivo Anticancer Drug Screen. Data for tumor model P388 Leukemia (intraperitoneal) in CD2F1 (CDF1) mice. Conditions: endpoint: median survival time, higher = longer survival. Summed up:
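Mice carrying the transplanted tumor received test compound or vehicle. Survival was recorded in each group, and the value is the treated-group measurement divided by that of the vehicle-treated control group.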

[1] abbreviates: dose: 60.0 mg/kg/injection, schedule: Q01DX005 (ip), vehicle: Klucel (hydroxypropylcellulose) (HPC).
Setting [2] is: dose: 120.0 mg/kg/injection, schedule: Q01DX005 (ip), vehicle: Klucel (hydroxypropylcellulose) (HPC).
Setting [3] is: dose: 240.0 mg/kg/injection, schedule: Q01DX005 (ip), vehicle: Klucel (hydroxypropylcellulose) (HPC).
The mark [4] stands for this setting: dose: 25.0 mg/kg/injection, schedule: Q01DX009 (ip), vehicle: saline.
Where [5] appears, read: dose: 50.0 mg/kg/injection, schedule: Q01DX009 (ip), vehicle: saline.
[6] abbreviates: dose: 100.0 mg/kg/injection, schedule: Q01DX009 (ip), vehicle: saline.
Setting [7] is: dose: 200.0 mg/kg/injection, schedule: Q01DX009 (ip), vehicle: saline.
Setting [8] is: dose: 50.0 mg/kg/injection, schedule: Q01DX005 (ip), vehicle: Klucel (hydroxypropylcellulose) (HPC).
[9] abbreviates: dose: 100.0 mg/kg/injection, schedule: Q01DX005 (ip), vehicle: Klucel (hydroxypropylcellulose) (HPC).
[10] abbreviates: dose: 200.0 mg/kg/injection, schedule: Q01DX005 (ip), vehicle: Klucel (hydroxypropylcellulose) (HPC).
Setting [11] is: dose: 25.0 mg/kg/injection, schedule: Q01DX005 (ip), vehicle: Klucel (hydroxypropylcellulose) (HPC).
The mark [12] stands for this setting: dose: 50.0 mg/kg/injection, schedule: Q01DX005 (ip), vehicle: saline with Tween-80.
[13] abbreviates: dose: 100.0 mg/kg/injection, schedule: Q01DX005 (ip), vehicle: saline with Tween-80.
Setting [14] is: dose: 200.0 mg/kg/injection, schedule: Q01DX005 (ip), vehicle: saline with Tween-80.
Setting [15] is: dose: 12.5 mg/kg/injection, schedule: Q01DX005 (ip), vehicle: Klucel (hydroxypropylcellulose) (HPC).

Molecules are shown by their SMILES. “And” between values parts separate entries of the source, which are not always exact repeats. Identical values can stand only once. Toxic doses and inconclusive results are not listed.

`CC(O)c1cc2c(cc1I)OCO2` (stereo not given): the T/C is 106 % of control (dose: 100.0 mg/kg/injection, schedule: Q01DX001 (ip), vehicle: Klucel (hydroxypropylcellulose) (HPC)); 108 % of control (dose: 200.0 mg/kg/injection, schedule: Q01DX001 (ip), vehicle: Klucel (hydroxypropylcellulose) (HPC)); 107 % of control (dose: 400.0 mg/kg/injection, schedule: Q01DX001 (ip), vehicle: Klucel (hydroxypropylcellulose) (HPC)).
For `Cc1cccc(N2CC3CC4C=CC3(C2)O4)c1` (stereo not given), the T/C by setting is: under setting [1], 96 % of control; under setting [2], 96 % of control; under setting [3], 96 % of control.
As for `CSc1n[nH]c(N)c1C(N)=O`, the T/C was 107 % of control (dose: 100.0 mg/kg/injection, schedule: Q01DX001 (ip), vehicle: saline with Tween-80); 100 % of control (dose: 200.0 mg/kg/injection, schedule: Q01DX001 (ip), vehicle: saline with Tween-80); 111 % of control (dose: 400.0 mg/kg/injection, schedule: Q01DX001 (ip), vehicle: saline with Tween-80).
In the case of `CC(=O)OCC1OC([Se][As](C)C)C(OC(C)=O)C(OC(C)=O)C1OC(C)=O` (stereo not given), the T/C was 95 % of control (dose: 1.56 mg/kg/injection, schedule: Q01DX009 (ip), vehicle: saline with Tween-80); 95 % of control (dose: 3.13 mg/kg/injection, schedule: Q01DX009 (ip), vehicle: saline with Tween-80); 99 % of control (dose: 6.25 mg/kg/injection, schedule: Q01DX009 (ip), vehicle: saline with Tween-80); 104 % of control (dose: 11.0 mg/kg/injection, schedule: Q01DX009 (ip), vehicle: saline with Tween-80); 99 % of control (dose: 12.5 mg/kg/injection, schedule: Q01DX009 (ip), vehicle: saline with Tween-80); 110 % of control (dose: 16.6 mg/kg/injection, schedule: Q01DX009 (ip), vehicle: saline with Tween-80). For the same compound, for the setting “dose: 37.5 mg/kg/injection, schedule: Q01DX009 (ip), vehicle: saline with Tween-80”, the T/C was 119 % of control.
For `Cc1ccc(NC(=S)NC(=O)/C=C/c2ccccc2)cc1Cl`, the T/C runs as follows: under setting [4], 100 % of control; under setting [5], 105 % of control; under setting [6], 98 % of control; under setting [7], 97 % of control.
Regarding `CCOC(=O)NCCCCCCNC(=O)OCC`, the T/C reads like this: under setting [8], 99 % of control and 90 % of control; under setting [9], 90 % of control and 95 % of control; under setting [10], 93 % of control and 98 % of control.
Regarding `CC1(C)CC(OP(=S)(OC2CC(C)(C)N(O)C(C)(C)C2)N2CC2)CC(C)(C)N1O`, the T/C (dose: 50.0 mg/kg/injection, schedule: Q01DX009 (ip), vehicle: saline + alcohol) is 124 % of control and the T/C (dose: 200.0 mg/kg/injection, schedule: Q01DX009 (ip), vehicle: saline + alcohol) is 168 % of control.
On to `N#CCCN1CCC(N)=NC1=NC#N`, for which the T/C is, setting by setting: under setting [11], 100 % of control; under setting [8], 112 % of control; under setting [9], 94 % of control; under setting [10], 96 % of control.
`CN1C(=O)/C(=C2\SC(=O)N(CN3CCCCC3)C2=O)c2cc(Br)ccc21`: the T/C is, setting by setting: under setting [1], 90 % of control; under setting [2], 90 % of control; under setting [3], 95 % of control.
With `CC1=C(C(N)=O)C(c2ccc([N+](=O)[O-])cc2)NC(=S)N1` (stereo not given), the T/C reads like this: under setting [1], 92 % of control; under setting [2], 90 % of control; under setting [3], 92 % of control.
Regarding `[Co].[N-]=C=S.[N-]=C=S.[N-]=C=S.[N-]=C=S`, the T/C is 101 % of control (dose: 9.5 mg/kg/injection, schedule: Q01DX009 (ip), vehicle: saline); 93 % of control (dose: 19.0 mg/kg/injection, schedule: Q01DX009 (ip), vehicle: saline); 104 % of control (dose: 38.0 mg/kg/injection, schedule: Q01DX009 (ip), vehicle: saline); 161 % of control under setting [5].
Take `S=c1[nH]ncn2nc3ccccc3c12`: the T/C is, setting by setting: under setting [12], 100 % of control; under setting [13], 97 % of control; under setting [14], 97 % of control.
In the case of `CN1CCC(O)(c2ccc(Br)cc2)C(C(=O)c2ccc(Br)cc2)C1` (stereo not given), the T/C reads like this: under setting [15], 100 % of control; under setting [11], 100 % of control; under setting [8], 90 % of control and 91 % of control.
Turning to `C#CCOCC(O)CCl` (stereo not given), the T/C is 90 % of control under setting [6] and 105 % of control under setting [7].
In the case of `[NH-]CC(=O)O.[NH-]CC(=O)O.[NH-]CC(=O)O.[NH-]CC(=O)O.[Pt+4]`, the T/C reads like this: (dose: 12.5 mg/kg/injection, schedule: Q01DX009 (ip), vehicle: distilled water + Tween-80) 93 % of control; (dose: 25.0 mg/kg/injection, schedule: Q01DX009 (ip), vehicle: distilled water + Tween-80) 94 % of control; (dose: 50.0 mg/kg/injection, schedule: Q01DX009 (ip), vehicle: distilled water + Tween-80) 101 % of control; (dose: 100.0 mg/kg/injection, schedule: Q01DX009 (ip), vehicle: distilled water + Tween-80) 104 % of control; (dose: 200.0 mg/kg/injection, schedule: Q01DX009 (ip), vehicle: distilled water + Tween-80) 104 % of control.
As for `C=CCO[C@H]1CO[C@H]2[C@@H]1OC[C@H]2OCC=C`, the T/C is, setting by setting: under setting [12], 96 % of control; under setting [13], 97 % of control; under setting [14], 99 % of control.
With `COC(=O)c1ccccc1SSCCN`, the T/C is, setting by setting: (dose: 12.5 mg/kg/injection, schedule: Q01DX005 (ip), vehicle: saline with Tween-80) 100 % of control; (dose: 25.0 mg/kg/injection, schedule: Q01DX005 (ip), vehicle: saline with Tween-80) 106 % of control; under setting [12], 101 % of control and 109 % of control.
Consider `CCOC(=C\C(=O)NC)/C=C/c1ccc([N+](=O)[O-])cc1`, for which the T/C by setting is: (dose: 6.25 mg/kg/injection, schedule: Q01DX005 (ip), vehicle: Klucel (hydroxypropylcellulose) (HPC)) 117 % of control; under setting [15], 91 % of control; under setting [11], 91 % of control; under setting [8], 86 % of control; under setting [9], 88 % of control.
As for `O=C1CC2(CCCC2)C(=O)N1c1ccc(O)c(CN2CCCCC2)c1`, the T/C by setting is: (dose: 50.0 mg/kg/injection, schedule: Q01DX009 (ip), vehicle: Klucel (hydroxypropylcellulose) (HPC)) 99 % of control; (dose: 100.0 mg/kg/injection, schedule: Q01DX009 (ip), vehicle: Klucel (hydroxypropylcellulose) (HPC)) 104 % of control; (dose: 200.0 mg/kg/injection, schedule: Q01DX009 (ip), vehicle: Klucel (hydroxypropylcellulose) (HPC)) 98 % of control.
On to `CC1CCC2N(C1)CC1C3(O)CC4(O)C(CCC5C(=O)C(O)CCC54C)C3(O)CC(O)C1(O)C2(C)O` (stereo not given), for which the T/C was 96 % of control (dose: 1.87 mg/kg/injection, schedule: Q01DX005 (ip), vehicle: Klucel (hydroxypropylcellulose) (HPC)); 97 % of control (dose: 3.75 mg/kg/injection, schedule: Q01DX005 (ip), vehicle: Klucel (hydroxypropylcellulose) (HPC)); 99 % of control and 97 % of control (dose: 7.5 mg/kg/injection, schedule: Q01DX005 (ip), vehicle: Klucel (hydroxypropylcellulose) (HPC)).
With `O=S(=O)(O)C(I)S(=O)(=O)O`, the T/C by setting is: under setting [5], 91 % of control; under setting [6], 94 % of control.
For `CCN(CC)CCCSCCCNc1cc(OC)cc2cccnc12`, the T/C is 105 % of control (dose: 12.5 mg/kg/injection, schedule: Q01DX005 (ip), vehicle: saline); 100 % of control (dose: 25.0 mg/kg/injection, schedule: Q01DX005 (ip), vehicle: saline); 99 % of control and 91 % of control (dose: 50.0 mg/kg/injection, schedule: Q01DX005 (ip), vehicle: saline).
Take `CCOC(=O)NC(=O)NC(=O)OCC`: the T/C by setting is: (dose: 100.0 mg/kg/injection, schedule: Q04DX003 (ip), vehicle: saline sonified) 100 % of control; (dose: 200.0 mg/kg/injection, schedule: Q04DX003 (ip), vehicle: saline sonified) 100 % of control; (dose: 400.0 mg/kg/injection, schedule: Q04DX003 (ip), vehicle: saline sonified) 100 % of control.
With `CCCCCCC[N+]1(CC)CCCCC1`, the T/C is 104 % of control (dose: 6.25 mg/kg/injection, schedule: Q01DX009 (ip), vehicle: saline); 106 % of control (dose: 12.5 mg/kg/injection, schedule: Q01DX009 (ip), vehicle: saline); 115 % of control under setting [4].
